Test results: patent publication US20260034192A1 (University of Saskatchewan, priority 2022, published 2026)
Values joined by “and” are separate entries in the source; they are usually repeats but may differ in a detail not shown here. Identical values can stand only once. “Also recorded” adds a separate entry of the source. Marks after values point to notes of the source that are not given here. Square brackets hold non-standard residues; d marks the D form. Peptide text beside a SMILES is read from it. dPhe(4-Cl) = N[C@H](Cc1ccc(Cl)cc1)C(=O)O; d2Nal = N[C@H](Cc1ccc2ccccc2c1)C(=O)O; dCit = NC(=O)NCCC[C@@H](N)C(=O)O; d3Pal = N[C@H](Cc1cccnc1)C(=O)O

Tests used:
[1] = after single injection of 0.25 mg in women; cited from earlier work
[2] = test system: pubertal Hereford-cross beef heifers; experiment: Two 1.5 mg Cetrorelix injections at pre-selection, growing or late-static phase in beef heifers (Example 4); assay type: in vivo, cattle
Procedure: The study was conducted on pubertal Hereford-cross beef heifers (n=32) at the U. Sask. Livestock and Forage Centre of Excellence (LFCE). Initial transrectal ultrasonography was performed to confirm the puberty by the presence or absence of a corpus luteum (CL). Animals were also weighed at this time. Animals with a functional CL were administered an intramuscular (im) injection of prostaglandin F2a analog (cloprostenol) to cause CL regression and ovulation. Daily ultrasonography was performed to detect ovulation and to record the number, size and location of follicles and CL in both ovaries. The day of emergence of a follicular wave was initially estimated by sudden increase in the number of 3-4 mm follicles and confirmed retrospectively as the day on which the dominant follicle was first detected at 4 to 5 mm in size (defined as Day 0). Follicular and hormonal data (see next section for endpoints) from all animals was collected for one complete inter-ovulatory interval.
Animals were randomized into 4 groups based on the day of ovulation. Group 1 (control group) heifers were given 3 mL normal saline (sham-treated negative control; n=3 on Days 1 and 2, n=3 on Days 3 and 4, n=2 on Days 6 and 7). Group 2 heifers were given 1.5 mg Cetrorelix on Days 1 and 2 (pre-selection dominant follicle phase; n=8), Group 3 heifers were given Cetrorelix on Days 3 and 4 (dominant follicle growing phase; n=8), and Group 4 heifers were given Cetrorelix on Days 6 and 7 (dominant follicle late-static/early regressing phase; n=8). The dose of Cetrorelix (1.5 mg per treatment), route of administration (intramuscular) and duration of treatment (i.e., 2 doses at 24 hr interval) were selected based on Example 2 and previous studies in cattle (Ulker et al, 2001).
Changes in the size of the dominant follicle, largest subordinate follicle and CL, and the number of follicles in 3-5, 6-8, and 9+mm size categories were recorded daily from initial ovulation to the first post-treatment ovulation. The inter-wave interval was determined based on duration between emergence of successive follicular waves.
Blood samples were also collected every 12 hours by jugular venipuncture for measurement of plasma LH concentrations from −36 hr to +72 hr of treatment. Blood samples were collected daily for measurement of plasma progesterone concentrations from 1 day before to 7 days after treatment. A Proc Mixed repeated measures analysis of variance (SAS version 9.4) was performed to compare serial data (follicle size, follicle numbers, CL size, plasma LH, plasma progesterone).

mature Angus heifers = experiment: Cetrorelix versus estradiol benzoate synchronization protocol with AI, random day of cycle (Example 7); assay type: in vivo, cattle
Procedure: This experiment was conducted on 38 mature Angus heifers at the Federal University of Santa Maria in Brazil. Heifers on a random day of the cycle (defined as Day 0) were divided into 2 groups (n=19 per group) and treated with a single i/m injection of 3 mg cetrorelix or with estradiol benzoate (1 mg i/m). A progesterone-releasing device (CIDR) was placed in the vagina of heifers at this time. Eight days after the cetrorelix or estradiol treatments, heifers were given 500 ug cloprostenol (prostaglandin analog) i/m injections and the CIDR device was removed. […] Heifers were given 250 ug gonadorelin acetate (GnRH analog) i/m injection at the time of artificial insemination. […] Pregnancy diagnosis was done 29-30 days after artificial insemination.

[3] = test system: GnRH-induced plasma LH levels and ovulation; experiment: GnRH challenge in heifers pre-treated with GnRH antagonists: plasma LH and ovulation (Example 10); assay type: in vivo, cattle; conditions: for Plasma LH response to GnRH challenge: heifers pre-treated with antagonist 60 minutes before GnRH injection
Procedure: Methods: Pubertal heifers (n=10) with a functional CL were selected at the Federal University of Santa Maria. Heifers were administered an intramuscular (i/m) injection of prostaglandin F2a analog (PGF; Lutalyse 5 ml or Estrumate 2 ml) to induce CL regression. Heifers were randomly placed into 4 treatment groups at the time of PGF injection: Trt1 (n=2, 3 mg of Abarelix); Trt2 (n=2, 3 mg of Degarelix), Trt3 (n=2, 3 mg of Relugolix) and Trt 4 (n=4; Cetrorelix 3 mg). Heifers were treated with these GnRH antagonists 1.5 days (36 hr) after the PGF injection and the GnRH antagonist treatment time point was defined as −60 mins. Heifers were treated with GnRH ([…] of Fertagyl i/m) at 0 mins to induce ovulation. Jugular venipuncture plasma samples were collected every 60 minutes for 3 hours (from −60 min to 120 minutes, with t=0 min when GnRH is administered). Plasma samples were kept at 4C overnight and LH analysis was performed the next day using a bovine-specific ELISA commercial kit. Transrectal ultrasonography was conducted to the time of GnRH injection (Time 0 hr) and 2 days later (48 hr after GnRH injection) to record the size of dominant follicle and to detect ovulation after treatment.

[4] = 3 mg cetrorelix or 1 mg estradiol benzoate i/m
[5] = individual heifers, 3 mg antagonist 60 min before GnRH
[6] = individual heifers, after GnRH injection, 3 mg antagonist at −60 min

CC(=O)N[C@H](Cc1ccc2ccccc2c1)C(=O)N[C@H](Cc1ccc(Cl)cc1)C(=O)N[C@H](Cc1cccnc1)C(=O)N[C@@H](CO)C(=O)N[C@@H](Cc1ccc(O)cc1)C(=O)N[C@H](CCCNC(N)=O)C(=O)N[C@@H](CC(C)C)C(=O)N[C@@H](CCCNC(=N)N)C(=O)N1CCC[C@H]1C(=O)N[C@H](C)C(N)=O [Cetrorelix, N-acetyl-3-(2-naphthyl)-D-alanyl-4-chloro-D-phenylalanyl-3-(3-pyridyl)-D-alanyl-L-seryl-L-tyrosyl-D-citrullyl-L-leucyl-L-arginyl-L-prolyl-D-alaninamide] (Ac-[d2Nal][dPhe(4-Cl)][d3Pal]SY[dCit]LRP[dA]-NH2)
Elimination half-life [1]: 5 h | Days from treatment to next wave emergence ([2]; 1.5 mg i/m on Day 1-2 of wave): 5.9 ± 0.4 days | Days from treatment to next wave's dominant follicle at 9 mm ([2]; 1.5 mg i/m on Day 1-2 of wave): 9.1 ± 0.8 days | Interovulatory Interval ([2]; 1.5 mg i/m on Day 1-2 of wave): 21.5 ± 1.4 | Interwave Interval ([2]; 1.5 mg i/m on Day 1-2 of wave): 6.9 ± 0.4^b | Largest Dominant Follicle Diameter (mm) ([2]; 1.5 mg i/m on Day 1-2 of wave): 10.3 ± 0.6^b mm | Largest Subordinate Follicle Diameter (mm) ([2]; 1.5 mg i/m on Day 1-2 of wave): 7.1 ± 0.5^b mm | Number of Follicles at WE ([2]; 1.5 mg i/m on Day 1-2 of wave): 19.3 ± 2.0 | Time to Largest Dominant (days) ([2]; 1.5 mg i/m on Day 1-2 of wave): 6.3 ± 0.9^ab days | Time to Largest Subordinate ([2]; 1.5 mg i/m on Day 1-2 of wave): 3.1 ± 0.6 days | Length of Wave 2 ([2]; 1.5 mg i/m on Day 1-2 of wave, in d (unit assumed)): 9.3 ± 0.7 | Days from treatment to next wave emergence ([2]; 1.5 mg i/m on Day 3-4 of wave): 5.8 ± 0.5 days | Days from treatment to next wave's dominant follicle at 9 mm ([2]; 1.5 mg i/m on Day 3-4 of wave): 9.5 ± 0.5 days | Interovulatory Interval ([2]; 1.5 mg i/m on Day 3-4 of wave): 20.3 ± 0.4 | Interwave Interval ([2]; 1.5 mg i/m on Day 3-4 of wave): 8.9 ± 0.4^ab | Largest Dominant Follicle Diameter (mm) ([2]; 1.5 mg i/m on Day 3-4 of wave): 10.6 ± 0.4^b mm | Largest Subordinate Follicle Diameter (mm) ([2]; 1.5 mg i/m on Day 3-4 of wave): 6.9 ± 0.4^b mm | Number of Follicles at WE ([2]; 1.5 mg i/m on Day 3-4 of wave): 20.9 ± 2.7 ^ | Time to Largest Dominant (days) ([2]; 1.5 mg i/m on Day 3-4 of wave): 4.6 ± 0.6^b days | Time to Largest Subordinate (days) ([2]; 1.5 mg i/m on Day 3-4 of wave): 4.0 ± 1.0^ days | Length of Wave 2 ([2]; 1.5 mg i/m on Day 3-4 of wave, in d (unit assumed)): 9.1 ± 0.8 | Days from treatment to next wave emergence ([2]; 1.5 mg i/m on Day 6-7 of wave): 4.3 ± 0.6 days | Days from treatment to next wave's dominant follicle at 9 mm ([2]; 1.5 mg i/m on Day 6-7 of wave): 8.3 ± 0.7 days | Interovulatory Interval ([2]; 1.5 mg i/m on Day 6-7 of wave): 19.6 ± 0.6 | Interwave Interval ([2]; 1.5 mg i/m on Day 6-7 of wave): 10.3 ± 0.6^a | Largest Dominant Follicle Diameter (mm) ([2]; 1.5 mg i/m on Day 6-7 of wave): 12.9 ± 0.4^a mm | Largest Subordinate Follicle Diameter (mm) ([2]; 1.5 mg i/m on Day 6-7 of wave): 7.9 ± 0.6^b mm | Length of Wave 2 ([2]; 1.5 mg i/m on Day 6-7 of wave): 8.3 ± 0.5 | Number of Follicles at WE ([2]; 1.5 mg i/m on Day 6-7 of wave): 15.8 ± 1.1 | Time to Largest Dominant (days) ([2]; 1.5 mg i/m on Day 6-7 of wave): 6.8 ± 0.9^ab days | Time to Largest Subordinate ([2]; 1.5 mg i/m on Day 6-7 of wave): 3.9 ± 0.5 days | Wave emergence after the first Cetrorelix treatment irrespective of phase of dominant follicle ([2]; two 1.5 mg (about 3.75 ug/kg) i/m doses 24 hr apart, groups combined): 5.3 ± 0.3 days | Next wave dominant follicle ready for ovulation ([2]; two 1.5 mg i/m doses): 9 days | Heifers showing estrous behavior, compared with estradiol-progesterone treatment (mature Angus heifers; 3 mg cetrorelix i/m): greater proportion | Pregnant/Double AI (mature Angus heifers; [4]): 7/9 | Pregnant/Double AI, percent (mature Angus heifers; [4]): 78% | Pregnant/Single AI (mature Angus heifers; [4]): 8/10 | Pregnant/Single AI, percent (mature Angus heifers; [4]): 80% | Ovulations that occurred between 72 to 96 hr after prostaglandin injection (mature Angus heifers; cetrorelix protocol): 90% | Pregnant/Total, percent (pregnancy rate) (mature Angus heifers; random day of cycle, 3 mg cetrorelix i/m or 1 mg estradiol benzoate i/m, CIDR 8 days): 79% | Pregnant/Total (mature Angus heifers; random day of cycle, 3 mg cetrorelix i/m or 1 mg estradiol benzoate i/m, CIDR 8 days, PGF, GnRH at AI): 15/19 | Plasma LH response to GnRH challenge [3]: did not register an increase in LH | Plasma LH response to GnRH challenge ([3]; listed as cetrorelix): LH levels remained unchanged; also recorded: block the GnRH-induced LH release | Ovulation (Yes/No) within 48 hr of GnRH treatment ([3]; heifers, 3 mg antagonist 60 min before GnRH): No | Ovulation (Yes/No) within 48 hr of GnRH treatment ([3]; heifers, 3 mg antagonist 60 min before GnRH, listed as cetrorelix): prevent GnRH-induced ovulations | Plasma LH concentration at 60 minute, group Mean ([3]; heifers, after GnRH injection): 12.83 mIU/ml | Plasma LH concentration at 120 minute, group Mean ([3]; heifers, after GnRH injection): 12.18 mIU/ml | Plasma LH concentration at −60 minute, group Mean ([3]; heifers, time of 3 mg GnRH antagonist injection): 11.63 mIU/ml | Plasma LH concentration at 0 minute, group Mean ([3]; heifers, time of GnRH injection): 10.07 mIU/ml | Dominant follicle diameter (mm) 48 hr after GnRH Injection [3, 5]: 9.8 mm and 12 mm | Dominant follicle diameter (mm) at GnRH injection [3, 5]: 7.5 mm and 10.5 mm | Plasma LH concentration at 60 minute [3, 6]: 18.33 mIU/ml and 22.72 mIU/ml and 5.12 mIU/ml and 5.15 mIU/ml | Plasma LH concentration at 120 minute [3, 6]: 23.74 mIU/ml and 15.04 mIU/ml and 4.60 mIU/ml and 5.32 mIU/ml | Plasma LH concentration at −60 minute ([3]; individual heifers, time of 3 mg GnRH antagonist injection, 60 mins before GnRH): 24.29 mIU/ml and 12.03 mIU/ml and 5.24 mIU/ml and 4.96 mIU/ml | Plasma LH concentration at 0 minute ([3]; individual heifers, time of GnRH injection, 3 mg antagonist at −60 min): 18.10 mIU/ml and 12.23 mIU/ml and 5.29 mIU/ml and 4.66 mIU/ml
